Experimental data from publication PMC8168783, “An anion and small molecule inhibition study of the β-carbonic anhydrase from Staphylococcus aureus” (Journal of Enzyme Inhibition and Medicinal Chemistry, 2021).

The molecules below were run against T1, SauBCA (assay: stopped-flow CO2 hydration assay). Conditions: CO2 1.7-17 mM, 10 mM Hepes pH 7.4, 10 mM NaClO4, 15 min preincubation at room temperature; inhibitor as sodium salt.
T1 construct: recombinant, obtained in-house as described earlier
Assay type: biochemical, Staphylococcus aureus

Point of comparison: `O=S(O)O` [bisulphite], Ki 0.9 mM. Against it:
- CCN(CC)C(=S)S [N,N-diethyldithiocarbamate] — within 1.5-fold, 0.64 mM
- O=[As](O)(O)c1ccccc1 [phenylarsonic acid] — 130-fold lower, 0.007 mM
- N#C[SeH] [selenocyanate] — 6.1-fold higher, 5.5 mM
- [O]=[Sn]([OH])[OH] [stannate] — 2.8-fold lower, 0.32 mM

Same assay, conditions: CO2 1.7-17 mM, 10 mM Hepes pH 7.4, 10 mM NaClO4, 15 min preincubation at room temperature; not as sodium salt

`OB(O)c1ccccc1` [phenylboronic acid] gave a Ki of 0.008 mM.
